In one assay the target is T1, IDH1^R132C (Homo sapiens, UniProt O75874, R132C).
T1 construct: purchased not specified
Briefly: NADPH depletion assay, IDH1 R132C. It counts as biochemical. The gist of the method: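 IDH1 R132C (2 nM) preincubated 15 min at RT with compound in Tris-HCl pH 7.6/MgCl2 buffer, then 60 min RT with NADPH and 0.14 mM alpha-ketoglutarate. Remaining NADPH read by diaphorase/resazurin fluorescence (Ex544/Em590).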

For a further assay, the system named is HT-1080 (IDH1^R132C). Briefly: Cellular 2-HG production assay, HT-1080. Format: cell-based. The conditions noted are these: read-out: HT1080 2-HG IC50. The method, then:
(§1) Cell lines HT-1080 (commercially available) and U87-MG-IDH1^R132H (obtained in analoy to the procedure reported in J. Mol. Neurosci 2013, 50, 165-71) are maintained in E-MEM 10% FCS and incubated at 37° C. in a humidified 5% CO2 atmosphere. Stably transfected U87-MG cell lines are also supplemented with 500 μg/mL G418.
(§2) Cells are seeded into 96 well black flat bottom plates at a density of 500 cells/well in 100 μL complete medium. After 24 hr the medium is replaced with 200 uL of fresh medium and compounds (dissolved into DMSO) are administrated to the cells using D300E Digital Dispenser (Tecan).
(§3) After 72 hr of incubation 100 uL from each well are collected and used for 2HG (R(−)-2-hydroxyglutarate) quantification.
(§4) Levels of 2-HG in cell culture media are determined by LC-MS/MS. Cell supernatants (100 μL/well) are treated with 1 M aqueous trichloroacetic acid containing 130 μM of the internal standard 2-HG-d3 (20 μL/well) in a 96-well plate.
(§5) The plates are sealed, mildly vortexed for 60 minutes, centrifuged at 4,000 RPM for 15 minutes, placed in a refrigerated autosampler taking care not to shake them, and aliquots of the upper part of the samples are directly injected in the chromatographic system. Calibration standards are obtained by ten fold dilution of aqueous 2-HG stock solutions with blank cell culture medium and denatured exactly in the same way as described above for samples. Samples and standards are assayed for 2-HG by reversed phase chromatography on a C18 column eluted with aqueous 0.15% formic acid and briefly washed with 90% methanol at the end of the run. 2-HG is determined by negative ion electrospray ionization with the internal standard method on a triple quadrupole mass spectrometer monitoring the MRM transitions 147>129 (2-HG) and 150>132 (2-HG-d3). 2-HG inhibition was calculated by comparing treated versus control data using Assay Explore (Symyx) software, with IC50 determined using a sigmoidal fitting algorithm.

Assay [1] deals with T2, IDH1^R132H homodimer enzyme (Homo sapiens, UniProt O75874, R132H).
T2 construct: purchased not specified
T2 sequence (O75874 whole entry R132H): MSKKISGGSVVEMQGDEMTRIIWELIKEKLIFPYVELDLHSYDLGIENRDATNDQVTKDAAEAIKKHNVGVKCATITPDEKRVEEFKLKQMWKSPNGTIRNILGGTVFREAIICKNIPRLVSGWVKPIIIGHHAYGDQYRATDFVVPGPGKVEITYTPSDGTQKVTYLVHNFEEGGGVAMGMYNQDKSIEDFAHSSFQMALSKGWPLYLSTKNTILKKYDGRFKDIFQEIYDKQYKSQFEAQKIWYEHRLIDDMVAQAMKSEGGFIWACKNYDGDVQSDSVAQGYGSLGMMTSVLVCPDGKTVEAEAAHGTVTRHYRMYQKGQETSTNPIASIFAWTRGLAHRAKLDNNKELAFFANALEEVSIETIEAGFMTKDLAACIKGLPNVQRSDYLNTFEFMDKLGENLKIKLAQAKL
Briefly: NADPH depletion assay, IDH1 R132H. Format: biochemical. Summed up: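 IDH1 R132H enzyme (8 nM as diluted) in Tris-HCl pH 7.6 with 10 mM MgCl2, 0.001% Triton X-100 and 4 mM β-mercaptoethanol is preincubated 15 min at RT with compound. Substrate mix (12 uM NADPH, 3.4 mM α-ketoglutarate) is added for 60 min; remaining NAD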

Another assay concerns U87MG_IDH1R132H. Put plainly: Cellular 2-HG production assay, U87-MG-IDH1 R132H. The conditions noted are these: inhibition of 2HG production, 72 hr incubation, LC-MS/MS. Format: cell-based. The protocol: as §1, §2, §3, §4, §5
Another assay addresses T3, IDH2^R172K (Homo sapiens, UniProt P48735, R172K).
T3 construct: purchased not specified
T3 sequence (P48735 40-452 R172K): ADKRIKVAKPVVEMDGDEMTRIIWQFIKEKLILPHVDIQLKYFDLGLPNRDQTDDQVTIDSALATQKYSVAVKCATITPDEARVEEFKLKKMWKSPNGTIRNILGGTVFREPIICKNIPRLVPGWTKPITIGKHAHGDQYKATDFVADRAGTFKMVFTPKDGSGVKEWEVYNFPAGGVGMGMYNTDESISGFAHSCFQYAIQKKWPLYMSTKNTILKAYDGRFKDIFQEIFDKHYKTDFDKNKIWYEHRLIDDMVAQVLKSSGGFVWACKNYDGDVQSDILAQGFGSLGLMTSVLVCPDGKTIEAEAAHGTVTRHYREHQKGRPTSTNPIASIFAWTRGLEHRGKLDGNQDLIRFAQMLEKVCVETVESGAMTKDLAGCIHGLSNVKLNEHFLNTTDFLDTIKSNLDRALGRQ
Put plainly: NADPH depletion assay, IDH2 R172K. It counts as biochemical. Summed up: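 IDH2 R172K (16 nM) was preincubated 15 min at RT with compound (1:3 series from 1 mM in DMSO) in Tris pH 7.6/NaCl/MgCl2/Triton/β-mercaptoethanol. The reaction ran 60 min at RT with 0.55 mM alpha-ketoglutarate and NADPH (12 μM in the substrate mix). Remaining NADPH was read with diaphorase/resazurin fluorescence at Ex544/Em590.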

Where [2] appears, read: Homo sapiens, HT-1080, 72 h, inhibition of 2HG production, 72 hr incubation, LC-MS/MS.

Like-named read-outs stand apart in the source and are kept apart here.

The term IC50 denotes the point on the concentration scale where inhibition reaches its midpoint.

T1 sequence (O75874 whole entry R132C): as the sequence (O75874 whole entry R132H) above, with H132C counted along it

With `C=CC(=O)N1CCN(C(CC)c2ccc([C@H](C)Nc3ncc4ccc(=O)n(C)c4n3)cc2)CC1` (stereo partly drawn) [cpd 215, 2-{[(1S)-1-{4-[1-(4-acryloylpiperazin-1-yl)propyl]phenyl}ethyl]amino}-8-methylpyrido[2,3-d]pyrimidin-7(8H)-one], the values for the 50% inhibitory concentration (IC50) on IDH1^R132C and in the assay with HT-1080 (IDH1^R132C) (setting [2]) were 4 nM and 2.3 nM, respectively.
`C[C@@H]1CN(Cc2ccc([C@H](C)Nc3ncc4ccc(=O)n(CC(C)(C)C)c4n3)c(F)c2)C[C@H](C)O1` [cpd 151, 2-{[(1S)-1-(4-{[(2R,6S)-2,6-dimethylmorpholin-4-yl]methyl}-2-fluorophenyl)ethyl]amino}-8-(2,2-dimethylpropyl)pyrido[2,3-d]pyrimidin-7(8H)-one]: the values for the half-maximal inhibitory concentration (IC50) (in assay [1]; at IDH1^R132C; in the assay on U87MG_IDH1R132H) were 95 nM, 20 nM and 321 nM, respectively.
With `CC(Nc1ncc2ccc(=O)n(CC(C)(C)C)c2n1)c1ccc(C(=O)NC2CCC(F)(F)CC2)c(Cl)c1` (stereo not drawn) [cpd 82, 2-chloro-N-(4,4-difluorocyclohexyl)-4-(1-{[8-(2,2-dimethylpropyl)-7-oxo-pyrido[2,3-d]pyrimidin-2-yl]amino}ethyl) benzamide], the IC50 in assay [1] amounted to 146 nM; at IDH1^R132C, 134 nM; in the assay with U87MG_IDH1R132H it was 1320 nM.
Consider `CC(C)n1c(=O)ccc2cnc(N[C@@H](C)c3ccc([C@H](CC4CC4)N4CCN(C(=O)CCCl)CC4)cc3)nc21` [cpd 242, 2-{[(1S)-1-(4-{(1S)-1-[4-(3-chloropropanoyl)piperazin-1-yl]-2-cyclopropylethyl}phenyl)ethyl]amino}-8-(propan-2-yl)pyrido[2,3-d]pyrimidin-7(8H)-one], for which the results for the IC50 at IDH1^R132C and in the assay with HT-1080 (IDH1^R132C) (setting [2]) were 10 nM and 4.5 nM, respectively.
Take `C=C(C)C(=O)N1CCN(C(CC)c2ccc([C@H](C)Nc3ncc4ccc(=O)n(C(C)C)c4n3)cc2)CC1` (stereo partly drawn) [cpd 221, 2-{[(1S)-1-(4-{1-[4-(2-methylacryloyl)piperazin-1-yl]propyl}phenyl)ethyl]amino}-8-(propan-2-yl)pyrido[2,3-d]pyrimidin-7(8H)-one]: the IC50 at IDH1^R132C is 68 nM; in the assay with HT-1080 (IDH1^R132C) (setting [2]) it was 142 nM.
With `C=CC(=O)N1CCN(C(CC)c2ccc([C@H](C)Nc3ncc4ccc(=O)n(C5CC5)c4n3)cc2)CC1` (stereo partly drawn) [cpd 218, 2-{[(1S)-1-{4-[1-(4-acryloylpiperazin-1-yl)propyl]phenyl}ethyl]amino}-8-cyclopropylpyrido[2,3-d]pyrimidin-7(8H)-one], the IC50 against IDH1^R132C is 13 nM; in the assay on HT-1080 (IDH1^R132C) (setting [2]), 2.1 nM.
Turning to `C=CC(=O)N1CCN([C@@H](CC)c2ccc([C@H](C)Nc3cc4c(ccc(=O)n4CC)cn3)cc2)CC1`, the IC50 in assay [1] is 4 nM; at IDH1^R132C, 4 nM; on IDH2^R172K it was 25 nM; with HT-1080 (IDH1^R132C) (setting [2]), 0.9 nM.
Consider `C=CC(=O)N1CCN(Cc2ccc([C@H](C)Nc3ncc4ccc(=O)n(CC)c4n3)cc2)C(C(C)C)C1` (stereo in doubt) [cpd 212, 2-{[(1S)-1-(4-{[(2S)-4-acryloyl-2-(propan-2-yl)piperazin-1-yl]methyl}phenyl)ethyl]amino}-8-ethylpyrido[2,3-d]pyrimidin-7(8H)-one], for which the IC50 on IDH1^R132C is 61 nM; with HT-1080 (IDH1^R132C) (inhibition of 2HG production, 72 hr incubation, LC-MS/MS), 53.1 nM.
For `CC[C@H](c1ccc([C@H](C)Nc2ncc3ccc(=O)n(C(C)C)c3n2)cc1)N1CCN(C(=O)CCO)CC1` [cpd 243], the figures for the half-maximal inhibitory concentration (IC50) against IDH1^R132C and with HT-1080 (IDH1^R132C) (setting [2]) were 20 nM and 38 nM, respectively.
As for `C=CC(=O)N1CCN([C@@H](CC)c2ccc([C@H](C)Nc3cc4c(ccc(=O)n4C(C)C)cn3)cc2)CC1` [cpd 239, 7-{[(1S)-1-{4-[(1S)-1-(4-acryloylpiperazin-1-yl)propyl]phenyl}ethyl]amino}-1-(propan-2-yl)-1,6-naphthyridin-2(1H)-one], the 50% inhibitory concentration (IC50) in assay [1] came to 2 nM; against IDH1^R132C, 2 nM; against IDH2^R172K, 20 nM; in the assay on HT-1080 (IDH1^R132C) (setting [2]), 0.9 nM.
As for `C/C=C/C(=O)N1CCN(Cc2ccc([C@H](C)Nc3ncc4ccc(=O)n(CC(C)(C)C)c4n3)cc2)CC1` [cpd 143, 2-({(1S)-1-[4-({4-[(2E)-but-2-enoyl]piperazin-1-yl}methyl)phenyl]ethyl}amino)-8-(2,2-dimethylpropyl) pyrido [2,3-d]pyrimidin-7(8H)-one], the IC50 in assay [1] worked out at 236 nM; against IDH1^R132C it was 66 nM; in the assay on HT-1080 (IDH1^R132C) (setting [2]), 517 nM.
Regarding `C#Cc1ccc(Cn2c(=O)ccc3cnc(N[C@@H](C)c4ccc(CN5CCN(C(=O)C=C)CC5)cc4)nc32)c(F)c1` [cpd 217, 2-{[(1S)-1-{4-[(4-acryloylpiperazin-1-yl)methyl]phenyl}ethyl]amino}-8-(4-ethynyl-2-fluorobenzyl)pyrido[2,3-d]pyrimidin-7(8H)-one], the IC50 against IDH1^R132C is 15 nM; in the assay with HT-1080 (IDH1^R132C) (setting [2]), 8.2 nM.
As to `C=CC(=O)N1CC[C@H](Oc2ccc([C@H](C)Nc3ncc4ccc(=O)n(CC)c4n3)cc2)C1` [cpd 224], the IC50 at IDH1^R132C stood at 1700 nM; in the assay with HT-1080 (IDH1^R132C) (setting [2]), 1070 nM.
As to `C=CC(=O)N1CCN([C@@H](CC2CC2)c2ccc([C@H](C)Nc3cc4c(ccc(=O)n4C(C)C)cn3)cc2)CC1` [cpd 251, 7-{[(1S)-1-{4-[(1S)-1-(4-acryloylpiperazin-1-yl)-2-cyclopropylethyl]phenyl}ethyl]amino}-1-(propan-2-yl)-1,6-naphthyridin-2(1H)-one], the values for the IC50 against IDH1^R132C and with HT-1080 (IDH1^R132C) (setting [2]) were 2 nM and 2.3 nM, respectively.
Consider `C=CC(=O)N1CCN(C(=O)c2ccc([C@H](C)Nc3ncc4ccc(=O)n(CC(C)(C)C)c4n3)cc2F)CC1` [cpd 142, 2-{[(1S)-1-{4-[(4-acryloylpiperazin-1-yl)carbonyl]-3-fluorophenyl}ethyl]amino}-8-(2,2-dimethylpropyl)pyrido [2,3-d]pyrimidin-7(8H)-one], for which the half-maximal inhibitory concentration (IC50) came out at 176 nM in assay [1]; 214 nM against IDH1^R132C; 552 nM against IDH2^R172K; 75 nM with HT-1080 (IDH1^R132C) (Homo sapiens, HT-1080, 72 h).
Consider `C/C=C/C(=O)N1CCN(C(CC)c2ccc([C@H](C)Nc3ncc4ccc(=O)n(C(C)C)c4n3)cc2)CC1` (stereo partly drawn) [cpd 222, 2-({(1S)-1-[4-(1-{4-[(2E)-but-2-enoyl]piperazin-1-yl}propyl)phenyl]ethyl}amino)-8-(propan-2-yl)pyrido[2,3-d]pyrimidin-7(8H)-one], for which the results for the IC50 at IDH1^R132C and with HT-1080 (IDH1^R132C) (setting [2]) were 147 nM and 168 nM, respectively.
Consider `C=CC(=O)N1CCN(C(CC)c2ccc([C@H](C)Nc3ncc4ccc(=O)n(Cc5c(F)cccc5F)c4n3)cc2)CC1` (stereo partly drawn) [cpd 216, 2-{[(1S)-1-{4-[1-(4-acryloylpiperazin-1-yl)propyl]phenyl}ethyl]amino}-8-(2,6-difluorobenzyl)pyrido[2,3-d]pyrimidin-7(8H)-one], for which the figures for the IC50 on IDH1^R132C and in the assay with HT-1080 (IDH1^R132C) (setting [2]) were 1 nM and 1.1 nM, respectively.
The matching figures for `C=CC(=O)N1CCN(Cc2ccc([C@H](C)Nc3ncc4ccc(=O)n(CC)c4n3)cc2)[C@H](C(C)C)C1` [cpd 209, 2-{[(1S)-1-(4-{[(2R)-4-acryloyl-2-(propan-2-yl)piperazin-1-yl]methyl}phenyl)ethyl]amino}-8-ethylpyrido[2,3-d]pyrimidin-7(8H)-one]: 46 nM and 30.2 nM.

Source of the values: patent publication US12018023B2 (NERVIANO MEDICAL SCIENCES S.R.L., priority 2018, dated 2024).
